# Assay results taken from patent publication US7645740B2, “Peptide sequence found in Laminin 5 for treating skin impairments” (Laboratoires d'Anjou Centre National de la Recherche …, priority 2004, dated 2010).
# Legend:
# [1] = tested on: NHKs; test: Effect of the peptide in soluble form on keratinocyte behaviour in culture; type: cell-based, human
# Protocol: NHKs were seeded in 12-well plates at a rate of 5,000 cells per well. After 24 hours, the culture medium was removed and replaced with new medium containing 5%, 2.5%, 1.25%, 0.6% and 0.3% peptide (B—F). A peptide-free control was carried. The plates were then placed in the incubator at 37° C. for 48 hours. Observations were made with an Axiovert 40 Zeiss microscope. Bar=50 μm
# Observation at higher magnification of the cell colonies described in FIG. 6 using an Axiovert 40 Zeiss microscope equipped with a PlasDisc interferential block. Bar=50 μm
# Keratinocytes were seeded in 12-well plates (Costar) at a rate of 5,000 cells per well in KBM-2 medium. After 24 hours in culture at 37° C. with 5% CO2, the culture medium was removed and replaced with KBM-2 medium containing the peptide quantities given in the figures (a peptide-free control was also carried out). After 24 hours in culture, the same quantity of peptide was added to the culture medium and the experiment was stopped after a further 24 hours in culture. Microscope analyse was carried out without preliminary fixation using an Axiovert 40 Zeiss microscope coupled to a Coolsnap camera (Roper Scientific, Evry, France).
# [2] = tested on: A431 cells; test: Cell proliferation test (XTT), A431; type: cell-based; conditions: A431, peptide 0.5% and 1%, serum-free medium, 5th hour
# Protocol: A431 cells were seeded in 96-well plates at a rate of 10,000 cells per well. After 24 hours, the culture medium was removed and replaced with serum-free medium containing the peptide quantities given in the graphs and reagent XTT. The plates were then placed in the incubator at 37° C. and absorbance readings were taken at 1 h, 2 h, 3 h, 4 h and 5 h. Peptide-free controls were carried out on the same plate.
# The effect of the peptide on cell proliferation was analysed with the aid of a calorimetric test (Cell Proliferation Kit XTT, Roche Diagnostics, Meylan, France) on the cells use for the cell adhesion test, i.e. HT1080, A431, HBL100 cells and normal human keratinocytes from young and elderly individuals.
# The chemical reaction used in the test is based on the production of NADPH by living cells, leading to the reduction of yellow tetrazolium XTT salts to orange formazan salts. Absorbance was measured at 490 nm using an ELISA plate reader. […] After 24 hours in culture at 37° C. with 5% CO2, the culture medium was removed and replaced with serum-free medium containing the peptide quantities given in the graphs and the test reagent. The plates were then placed in the incubator at 37° C. and absorbance readings were taken at 1 h, 2 h, 3 h, 4 h and 5 h. […] In this case, cell viability was calculated according to the following formula: % viability=(Abs. Cells with peptide/Abs. Control cells)×100.
# [3] = tested on: NHK-old; test: Cell adhesion of NHK-old to peptide co-immobilized with laminin 5; type: cell-based, human
# Protocol: The peptide (variable quantities indicated) and laminin 5 (fixed quantity 0.2 mg) were co-immobilized in 96-well plates. 3×104 NHK-8 years and 3×104 NHK-63 years were deposited in each well and plates were incubated at 37° C. for 1 hour. After washing, attached cells were fixed and cell adhesion was measured as described in the methodology section. Cell adhesion in the presence of the peptide is given as a percentage of cell adhesion obtained with laminin 5 alone.
# The effect of peptide TALRIRATYGEY (SEQ ID NO. 1) on adhesion to LN5 was verified with NHK-old (FIG. 16). NHK-young ([…]) was tested in parallel and 30,000 cells/well were used in both cases (NHK-old is always limiting as it is obtained in lower amounts). In general, the results obtained in the course of this experiment are less marked than those in the experiment presented in FIG. 14 since (1) the number of cells is lower (30,000 instead of 50,000) and (2) the peptide range tested is also smaller. […] This effect, less marked than the effect found with NHK-young, is probably linked to the decreased adhesion with age of NHK-old to peptide TALRIRATYGEY (SEQ ID NO.1) (FIG. 6).
sequence,measurement,setting,value
TALRIRATYGEY (Human laminin 5) [Peptide 1],cell morphology vs control cells,"[1]; NHKs cultured with the peptide, higher magnification (FIG. 12)",no morphological difference
same,effect of peptide added to culture medium on colony formation,"[1]; NHKs, 5%, 2.5%, 1.25%, 0.6% and 0.3% peptide in medium, 48 hours, vs peptide-free control",faster formation of cohesive colonies
same,mean increase in cell proliferation compared to the control,[2],8%
same,effect on adhesion of NHK-old to LN5 (co-immobilized),"[3]; NHK-63 years, 30,000 cells/well, laminin 5 fixed quantity 0.2 mg",potentializing effect
same,effect on NHK-old adhesion to LN5 compared with NHK-young,"[3]; NHK-old vs NHK-young, 30,000 cells/well",less marked
